Laboratory results from BindingDB's records for doi:10.1016/0960-894X(96)00290-9 (1996).

Test: Inhibition of pancreatic cholesterol esterase using p-nitrophenylacetate or cholesteryl [1-14C]-oleate as substrates

SMILES	IC50
CC(C)(C)[C@H]1CC[C@H](CC(=O)C(F)(F)C(F)(F)F)CC1 [1-(4-tert-Butyl-cyclohexyl)-3,3,4,4,4-pentafluoro-butan-2-one]	10 µM
CCCCCCCCCCCCC(F)(F)C(=O)C[C@H]1CC[C@]2(C)CCCC[C@H]2C1 [3,3-Difluoro-1-((2S,4aS,8aS)-4a-methyl-decahydro-naphthalen-2-yl)-pentadecan-2-one]	> 100 µM
